Measurements reported in patent US6482833B2, “Immunotherapeutic anti-cancer pharmaceutical compositions” (North Shore - Long Island Jewish Research Institute, priority 1997, dated 2002).
Entries after “also recorded” stand apart in the source; their conditions may differ.

Assays:
[1] = system: tumor cells; assay: Direct cytotoxicity of the immunomodulatory compounds; assay type: cell-based; conditions: effective immunostimulatory concentrations
[2] = Carrageenan foot pad edema model of inflammation; assay type: in vivo, mice
Protocol: To determine an inflammatory […] foot pad edema model with carrageenan, female C3H/HeN mice (20-25g) were obtained from Jackson Laboratories, and 5 mice were used in each group to obtain statistically significant results. […] Louis, Mo.) was made in PBS at 37° C. 3 days or more before using. […] Louis, Mo.) was made freshly each time. Carrageenan (50 μl, 0.2%) was injected into the plantar surface of the left hind paw to induce paw edema in control group. and spermine at the doses indicated was coadministered in 50 μl PBS in three spermine groups. The right hind paw was injected with the same volume of PBS as control for every groups. The thickness of the two paws was measured double-blindly using a caliper 3 hours and 28 hours later. The difference in the thickness between the two paws was taken as inflammatory index.

[3] = system: TNFα release from LPS-stimulated macrophage cell cultures; assay: TNF release from LPS-activated monocyte/macrophage cultures counter-regulated by spermine (ELISA); assay type: cell-based, human; conditions: for override of spermine inhibition of TNFα release: LPS-stimulated cells with spermine, TNFα in culture supernatants, dose-response
Protocol: Macrophage activation was measured by release of TNF into macrophage cell culture supernatants.
Monocytes were isolated and cultured by isolating fresh human PBMCs from EDTA-blood from healthy donors (Long Island Blood Service, Melville, N.Y.) by Ficoll-Paque (Pharmacia, Uppsala, Sweden) gradient. Cells were suspended in RPMI 1640 medium (Gibco BRL, Grand Island, N.Y.) containing 10% heat-inactivated human serum, 0.1% L-glutamine, and 0.01% gentamycin), and cultured at 37° C. in a humidified atmosphere of 5% CO2 and 95% air. PBMCs were plated in 96-well plates at 5×10^5 cells per well for cytokine assay and uptake study or in 24-well plates at 5×10^6 cells per well for RNA study. Nonadherent cells were removed after overnight culture, and adherent cells (monocytes) were then used for experiment.
(§1) Monocytes were activated to release cytokines by treating cells with 100 ng/ml sonicated LPS (Sigma, St Louis, Mo.) and 25 u/ml recombinant human interferon-γ (Boehringer Mannheim, Mannheim, Germany) except 1 μg/ml LPS alone for IL-1β. For treating cells with spermine, cells were pretreated with spermine (Sigma, St Louis, Mo.) one hour before LPS/IFG stimulation. Spermine was made freshly each time in sterile-filtered deionized water at 51.2 mM or 35 mM, and then diluted in complete RPMI 1640 medium followed by adding to individual wells to yield the final concentration indicated. Control wells received an equal volume of medium only were used in all experiment.

[4] = system: B16 F1 tumor cells; assay: In vivo mouse tumor model (B16 F1 cells), tumor size and formation; set-up: species or system mice; conditions: for solid tumor masses: mice, administered parenterally
[5] = system: TNF; assay: TNF levels in tumor biopsy samples of solid tumor-bearing mice; assay type: in vivo; conditions: 1 mg/kg ip; tumor biopsy samples in four mice
[6] = system: monocytes; conditions: spermine at the concentrations indicated
Protocol: as §1

[7] = system: G361 cells; assay: Macrophage-mediated cytotoxicity of LPS-activated monocytes to tumor cells
Protocol: Tumor cell cultures were split tumor cells 1:3 in FBS-containing RPMI 1640 medium and incubate overnight 20 μCi/ml ^3H-thymidine was added to tumor cell cultures to label the cells overnight. The cells were washed to remove unabsorbed label. The cells were trypsinized and suspended in 10 ml DPBS, washed and counted. Flasks of 7.5×10^5, 7.5/2×10^5, 7.5/4×10^5, 7.5/8×10^5, 7.5/16×10^5 and 7.7/32×10^5 cells/ml in RPMI 1640 medium were prepared. The tumor cells (200 μl) were added to wells containing 3×10^5 monocytes or control wells to make the E/T ratio 2:1, 4:1, 8:1, 16:1, 32:1 and 64:1. The cell mixture was incubated for 2 hours and macrophage-mediated cytotoxicity to tumor cells was determined.
PBMCs were isolated in a Ficoll-Paque (Pharmacia) gradient and plated. After 2 hours of incubation, the nonadherent cells were removed by rinsing with RPMI 1640 medium without serum 3×, then add 25 ml human serum-containing RPMI 1640 medium with 2 ng/ml human MCSF to each 75 flask and incubate the cells overnight. The cells were labeled with 20 uCi/ml ^3H-thymidine overnight and washed 2× with DPBS without Ca & Mg. The monocytes were isolated and counted, then diluted to 1.5×10^6 cells/ml in RPMI 1640. Tumor cells were diluted to 7.5×10^5, 7.5/2×10^5, 7.5/4×10^5, 7.5/8×10^5, 7.5/16×10^5 and 7.7/32×10^5 cells/ml in RPMI 1640 medium. About 200 μl tumor cells were added at different concentration to the wells containing 3×10^5 monocytes or control wells to make the E/T ratio 2:1, 4:1, 8:1, 16:1, 32:1 and 64:1, then incubated for 2 hrs.
About 400 μg/μl LPS was sonicated for 10 min, then 19.2 μl 400 μg/ml LPS was added to 10 ml RPMI 1640 medium.

[8] = 50 μM spermine, macrophages activated by endotoxin (LPS)

CC1(C)CC(NCCCCCCNC2CC(C)(C)NC(C)(C)C2)CC(C)(C)N1 [compound 38, N,N′-bis(2,2,6,6-tetramethyl-4-piperidyl)hexamethylenediamine]
direct cytotoxicity [1]: not cytotoxic | paw edema, override of inflammatory inhibition by spermine ([2]; in vivo mouse paw edema model, dose response): overrode the inflammatory inhibition by spermine | paw thickness, override of spermine effect ([2]; mouse foot pad carrageenan model, clinical concentrations): overrides the spermine effect | override of spermine inhibition of TNFα release [3]: overcome spermine inhibition of TNFα release; also recorded: effectively overrode spermine-induced suppression of TNF secretion | tumor formation ([4]; mice inoculated with equal amounts of tumor cells, three doses at two concentrations): delayed tumor formation | solid tumor masses [4]: shrink solid tumor masses

NCCCN1CCN(CCCN)CC1 [compound 91]
direct cytotoxicity [1]: not cytotoxic | TNF levels in tumors [5]: significantly increase TNF levels in tumors | override of spermine inhibition of TNFα release [3]: effectively overrode spermine-induced suppression of TNF secretion | tumor size, time-response ([4]; 2 mg/kg): shrink tumor size | growth of established tumors ([4]; 2 mg/kg administered seven days after tumor inoculation): inhibited the growth of established tumors | solid tumor masses [4]: shrink solid tumor masses | tumor size, time response and dose-response ([4]; two doses i.p., 0.5 mg/kg and 2 mg/kg in sterile PBS): shrink tumor size

NCCCCC(CN)CCCN (stereo not shown) [compound 94]
direct cytotoxicity [1]: not cytotoxic

C(CCC1CCNCC1)CC1CCNCC1 [compound 214140]
override of spermine inhibition of TNFα release [3]: override the inhibitory effect of spermine

NCCCNCCCCNCCCN [spermine]
cell viability (LDH assay) [6]: did not affect cell viability significantly | acute footpad inflammation induced by carageenan ([2]; local administration in mice): protected mice against the development of acute footpad inflammation | percent cytotoxicity, LPS alone versus LPS with spermine ([7]; 100 ng/ml LPS, 50 mM spermine, several ratios): reduces LPS-induced cytotoxicity | cellular cytotoxicity of activated monocytes against G361 cells ([7]; 100 ng/ml LPS, 50-100 μM spermine): significantly inhibited | macrophage-mediated tumor cell killing [7, 8]: effectively suppressed macrophage-mediated tumor cell killing | suppression of TNF secretion [3, 8]: effectively suppressed TNF secretion | inhibition of cytokine synthesis ([3]; serum-free conditions and in the presence of the polyamine oxidase inhibitor aminoguanidine): effectively inhibit cytokine synthesis
